Non-standard residues stand in square brackets, D forms with d. Residues, ends and D or L forms follow the SMILES beside them. Orn = NCCC[C@H](N)C(=O)O
Assays:
[1] = tested on: calreticulin (CALR) on 4T1 cells; assay: CALR exposure on the cell surface, fluorescence microscopy; assay type: cell-based, murine; details: 4T1 monolayer; 8 and 16 μM; 24 h; Alexa Fluor 647 anti-CALR antibody, normalized to non-treated cells; n=2
Protocol: (§1) We performed fluorescence microscopy using an Alexa Fluor 647 anti-CALR antibody for quantifying the CALR exposure on the surface of cells. Confluent monolayer 4T1, HeLa, HepG2 and MDA-MB-231 cell cultures were incubated with GS and GS-derived peptides for 24 h followed by fixation, staining with the antibody and microscopic observation. Using the images, we calculated the total levels of the fluorescence signal per cell in each sample. […] To examine the time dependence of the CALR exposure, cytofluorimetric experiments were conducted on the MDA-MB-231 cell line (Fig. 9) using an Alexa Fluor 647 anti-CALR antibody. In this experiment, 30 min, 3 h, 6 h and 24 h were the time points for monitoring the fraction of cells expressing CALR on their surface.
(§2) The cells were seeded (10 000 cells per well for 4T1; 20 000 cells per well for HeLa and MDA-MB-231; 30 000 cells per well for HepG2) in 200 μL of appropriate medium in a 96-well black-wall transparent-bottom plate (6055302, Revvity). After 24 h incubation, the medium was aspired and 100 μL of fresh medium was added. The compounds (64, 32, 16 and 8 μM for closed photoforms; 32, 16, 8 and 4 μM for open photoforms and GS) along with the negative (1% DMSO) control were prepared in DMEM and dispensed in 100 μL per well for 24 h. Then 50 μL of 20% paraformaldehyde (28908, Thermo Fisher) was added for 15 min for fixation. […]

[2] = tested on: calreticulin (CALR) on MDA-MB-231 cells; assay: as above; assay type: cell-based, human; details: MDA-MB-231 monolayer; 8 and 16 μM; 24 h; Alexa Fluor 647 anti-CALR antibody, normalized to non-treated cells; n=2
Protocol: as §1, §2

[3] = tested on: calreticulin (CALR) on HepG2 cells; assay: as above; assay type: cell-based, human; details: HepG2 monolayer; 32 μM; 24 h; Alexa Fluor 647 anti-CALR antibody, normalized to non-treated cells; n=2
Protocol: as §1, §2

[4] = tested on: membrane-bound CALR on MDA-MB-231 cells; assay: CALR exposure, cytofluorimetric measurements; assay type: cell-based, human; details: concentrations higher than IC50 (16 and 32 μM), flow cytometry
Protocol: We performed fluorescence microscopy using an Alexa Fluor 647 anti-CALR antibody for quantifying the CALR exposure on the surface of cells. Confluent monolayer 4T1, HeLa, HepG2 and MDA-MB-231 cell cultures were incubated with GS and GS-derived peptides for 24 h followed by fixation, staining with the antibody and microscopic observation. Using the images, we calculated the total levels of the fluorescence signal per cell in each sample. […] While practically no enhancement in CALR exposure could be detected in the HeLa cell culture, a 4–7-fold enhancement is observed for HepG2 at 32 μM of GS, LMB002-open and LMB033-open. Then 8 and 16 μM of GS caused a 3-fold increase of CALR exposure in breast cancer cell lines 4T1 and MDA-MB-231. We noted no direct dose dependence of CALR release in our experiments. It may stem from the difference in the kinetics of CALR exposure. To examine the time dependence of the CALR exposure, cytofluorimetric experiments were conducted on the MDA-MB-231 cell line (Fig. 9) using an Alexa Fluor 647 anti-CALR antibody. In this experiment, 30 min, 3 h, 6 h and 24 h were the time points for monitoring the fraction of cells expressing CALR on their surface.
This is different from the release kinetics of ATP, which was released from the cytosol of the cells with compromised plasma membranes almost immediately after the treatment with our peptides. […]

Question: For CC(C)C[C@@H]1NC(=O)[C@H](CCCN)NC(=O)[C@H](C(C)C)NC(=O)[C@@H]2CCCN2C(=O)[C@@H](Cc2ccccc2)NC(=O)[C@H](CC(C)C)NC(=O)[C@H](CCCN)NC(=O)[C@H](C(C)C)NC(=O)[C@@H]2CCCN2C(=O)[C@@H](Cc2ccccc2)NC1=O [Gramicidin S, gramicidin S] (cyclo(V[Orn]L[dF]PV[Orn]L[dF]P)), which “increase of CALR exposure” value [1] is on record?
Answer: 3 fold

Question: What about the “increase of CALR exposure” value [2] of the same compound?
Answer: 3 fold

Question: And the “enhancement in CALR exposure” value [3]?
Answer: 4–7 fold

Question: What about the “incubation time after which all cells exposed CALR on their surface” value [4] of the same compound?
Answer: 3 h

From PMC12013366, “In vitro evaluation of the immunogenic potential of gramicidin S and its photocontrolled analogues” (RSC Medicinal Chemistry, 2025)
